Reference: patent US4600689A, “Novel bilirubin oxidase, its production and use” (Takara Shuzo Co., Ltd., priority 1983, dated 1986)
Like-named read-outs stand apart in the source and are kept apart here.

Target: T1, novel bilirubin oxidase M-1 of Trachyderma tsunodae K-2593 (Trachydermella tsunodae, UniProt O61263)
T1 sequence (O61263 22-521): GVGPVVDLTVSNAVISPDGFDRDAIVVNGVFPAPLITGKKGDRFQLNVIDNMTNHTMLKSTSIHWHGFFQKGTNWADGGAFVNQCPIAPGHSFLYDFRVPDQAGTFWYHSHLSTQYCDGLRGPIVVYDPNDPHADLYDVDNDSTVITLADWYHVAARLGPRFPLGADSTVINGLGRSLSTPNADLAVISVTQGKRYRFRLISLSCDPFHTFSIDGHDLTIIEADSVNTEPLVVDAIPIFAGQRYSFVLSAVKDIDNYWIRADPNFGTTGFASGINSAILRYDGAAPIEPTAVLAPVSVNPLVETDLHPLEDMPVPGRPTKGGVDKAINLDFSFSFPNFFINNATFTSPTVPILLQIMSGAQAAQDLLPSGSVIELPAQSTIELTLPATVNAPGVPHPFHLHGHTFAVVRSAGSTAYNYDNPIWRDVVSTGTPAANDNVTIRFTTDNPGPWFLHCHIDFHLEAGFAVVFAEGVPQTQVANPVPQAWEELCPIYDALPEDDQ
Assay: Effect of interfering agents on bilirubin oxidase activity (decrease in absorption at 460 nm of bilirubin)
Type: biochemical
Settings: 10 min

[1] = pH 7, additive 1 mM, read-out: Percent interference (%)
[2] = pH 7, read-out: Percent interference (%)

Compound	inhibition at 1000 µM [1]	inhibition at 1000 µM [2]
OCCS [2-Mercaptoethanol]	31%	
O=C(O)CN(CCN(CC(=O)O)CC(=O)O)CC(=O)O [EDTA]		59%
N[C@@H](CCC(=O)N[C@@H](CS)C(=O)NCC(=O)O)C(=O)O [Reduced glutathione]		38%
c1ccc(-c2ccccn2)nc1 [α,α'-Dipyridyl]		30%
O=C(O)CI [Iodoacetic acid]		10%

The next lines start with results.

inhibition at 1000 µM [1]	Compound	inhibition at 1000 µM [2]
100%	O=C1O[C@H]([C@@H](O)CO)C(O)=C1O [L-ascorbic acid]	
74%	N[C@@H](CS)C(=O)O [L-cysteine]	
34%	c1cnc2c(c1)ccc1cccnc12 [o-Phenanthroline]	
86%	O[C@H](CS)[C@H](O)CS (racemic) [Dithiothreitol]	
